Measured values: patent US20250228864A1, “THERAPIES FOR THE TREATMENT OF INFLAMMATORY BOWEL DISEASE” (Gilead Sciences, Inc., priority 2023, published 2025)

Molecular target: T1, α4β7 receptors on β7+CD4+CD45RO+ memory T cells (Homo sapiens, UniProt P13612+P26010)
T1 construct: endogenous in cells
T1 sequence (P13612 34-1032): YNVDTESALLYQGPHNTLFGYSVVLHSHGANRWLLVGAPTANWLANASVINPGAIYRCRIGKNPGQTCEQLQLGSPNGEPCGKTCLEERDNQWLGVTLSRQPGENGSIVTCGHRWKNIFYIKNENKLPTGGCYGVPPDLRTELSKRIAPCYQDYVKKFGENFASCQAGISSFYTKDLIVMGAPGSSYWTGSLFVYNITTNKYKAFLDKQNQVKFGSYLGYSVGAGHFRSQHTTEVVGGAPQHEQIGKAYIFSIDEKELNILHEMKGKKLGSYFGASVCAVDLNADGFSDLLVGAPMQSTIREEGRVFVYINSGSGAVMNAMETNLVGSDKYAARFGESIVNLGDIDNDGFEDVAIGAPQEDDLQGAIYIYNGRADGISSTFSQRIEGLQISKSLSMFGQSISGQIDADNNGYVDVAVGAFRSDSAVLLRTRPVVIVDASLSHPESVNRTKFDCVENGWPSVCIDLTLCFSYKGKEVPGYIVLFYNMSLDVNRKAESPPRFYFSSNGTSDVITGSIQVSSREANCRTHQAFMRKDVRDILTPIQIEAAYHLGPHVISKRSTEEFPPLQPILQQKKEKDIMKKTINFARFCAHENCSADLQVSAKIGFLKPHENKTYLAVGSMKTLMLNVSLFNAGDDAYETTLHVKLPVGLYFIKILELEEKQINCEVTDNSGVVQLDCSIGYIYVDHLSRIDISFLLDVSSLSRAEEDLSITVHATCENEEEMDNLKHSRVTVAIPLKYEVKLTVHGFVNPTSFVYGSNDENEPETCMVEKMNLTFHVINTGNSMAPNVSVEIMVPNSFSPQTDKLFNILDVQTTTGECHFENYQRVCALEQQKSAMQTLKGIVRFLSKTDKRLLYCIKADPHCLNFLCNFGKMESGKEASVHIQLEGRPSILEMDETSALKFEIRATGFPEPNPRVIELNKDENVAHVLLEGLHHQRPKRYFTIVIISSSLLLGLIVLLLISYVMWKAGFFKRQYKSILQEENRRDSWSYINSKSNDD
T1 sequence (P26010 20-798): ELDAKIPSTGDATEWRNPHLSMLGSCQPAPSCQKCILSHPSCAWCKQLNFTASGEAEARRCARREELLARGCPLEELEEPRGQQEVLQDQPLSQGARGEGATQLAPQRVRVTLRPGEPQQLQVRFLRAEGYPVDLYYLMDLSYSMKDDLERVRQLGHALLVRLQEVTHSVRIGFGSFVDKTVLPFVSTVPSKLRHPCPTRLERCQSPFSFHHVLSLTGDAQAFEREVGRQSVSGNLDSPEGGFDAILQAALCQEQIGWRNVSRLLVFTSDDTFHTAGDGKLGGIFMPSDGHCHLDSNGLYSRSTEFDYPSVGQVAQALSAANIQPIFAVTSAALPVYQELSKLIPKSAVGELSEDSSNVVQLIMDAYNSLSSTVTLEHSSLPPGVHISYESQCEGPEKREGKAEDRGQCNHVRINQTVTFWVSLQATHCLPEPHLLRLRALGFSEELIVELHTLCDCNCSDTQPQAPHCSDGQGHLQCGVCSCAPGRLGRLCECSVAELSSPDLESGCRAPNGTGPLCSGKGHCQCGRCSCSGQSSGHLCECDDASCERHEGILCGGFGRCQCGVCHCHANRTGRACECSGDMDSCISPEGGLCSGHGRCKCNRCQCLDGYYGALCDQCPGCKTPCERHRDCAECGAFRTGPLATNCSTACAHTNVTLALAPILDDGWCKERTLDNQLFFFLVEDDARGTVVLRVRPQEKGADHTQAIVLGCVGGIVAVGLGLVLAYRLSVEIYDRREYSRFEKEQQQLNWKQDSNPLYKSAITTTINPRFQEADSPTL
Test: Whole blood α4β7 receptor occupancy (RO) assay by flow cytometry in SAD and MAD cohorts
Assay type: in vivo
Settings: for time post last dose (Day 14) until which α4β7 % RO≥95% was sustained: 100% of participants
Method: Formula (III) is a prodrug of Formula (I) and undergoes a rapid conversion to its active metabolite (Formula (I)) when administered to a human. The pharmacodynamics (PD) of the active metabolite of Formula (III) were analyzed in healthy volunteers by measuring the metabolites receptor occupancy (RO) on α4β7 receptors in whole blood to inform Formula (III) dose selection and schedule.
A whole blood RO assay was developed and fit-for-purpose-validated that measures free α4β7 receptors on […] memory T cells in fresh whole blood by flow cytometry. The β7+CD4+CD45RO+ memory T-cells were identified using a staining panel comprised of fluorescently labelled anti-CD3, -CD4, -CD8, -CD45RO, and -β7 antibodies (Biolegend) (Table 14) as soon as possible after blood collection. Biotinylated human MAdCAM-1 protein, the natural ligand for α4β7, is mixed with streptavidin PE dextramer (Immudex) (MDX) and added to the whole blood in the presence of the divalent cation manganese (as MnCl2). MDX and the metabolite compete for binding to the α4β7 integrin receptor. Specimen data are acquired immediately on a BD LSRFortessa X-20 Cell Analyzer flow cytometer using a α4β7 RO cell acquisition template and application settings. The gating strategy is as follows: lymphocytes are gated based on size (FSC-A) and complexity (SSC-A). Doublets are removed using FSC-A/FSC-H. CD3+ lymphocytes are further differentiated into CD4+ and CD8+ T cells. CD4+CD45RO+ positive T cells are gated on β7 integrin and MDX positivity. The fluorescent intensities of PE-MDX β7+CD4+CD45RO+ memory T cells in pre-dose and post-dose whole blood are used to calculate the % RO post-dose. The lower level of quantification (LLOQ) of the assay was estimated to be ˜40% for a single measurement; similarly, the a4b7 RO assay was fit-for purpose validated to precisely quantify % RO up to 95% RO. Actual measured values <40% RO and ≥95% RO are shown but represent best estimates.
Whole blood was collected pre- and post-Formula (III) or placebo to match (PTM) administration and percent α4β7 RO was calculated for all postbaseline time points in the SAD and MAD cohorts of the study. α4β7% RO was evaluated in all participants in Part A (SAD, Formula (III) 20 mg, 60 mg, 200 mg, 500 mg, and 1000 mg administered in liquid filled capsules under fasting conditions), and in Part B (MAD, Formula (III) 20 mg, 80 mg, 200 mg, 500 mg in liquid filled capsules under non-fasting conditions and Formula (III) 200 mg in tablet formulation under fasting conditions). In total, 2,506 samples collected at 35 different time-points from 109 unique participants were analyzed for α4β7% RO.

## CCOC(=O)[C@H](Cc1ccc(-n2c(=O)c3ccncc3n(C)c2=O)c2ncccc12)NC(=O)c1c(C)cc(N2CCOC[C@@H]2C(F)(F)F)cc1F (atropisomer, axis not shown) [Formula (III)]
200 mg capsule nonfasting, after last dose
  time until which full target engagement could possibly be achieved: approximately 48 h
200 mg capsule nonfasting, after last dose Day 14
  α4β7 % RO 72 h postdose, average: 90.1%
200 mg capsule nonfasting, all participants
  α4β7 % RO at 24 h post last dose on Day 14: ≥ 95%
200 mg tablet fasting
  time post last dose (Day 14) until which α4β7 % RO≥95% was sustained: 72 h
500 mg capsule nonfasting
  time post last dose (Day 14) until which α4β7 % RO≥95% was sustained: 96 h
MAD 20 mg QD capsule nonfasting, Day 1, 3 h postdose
  α4β7 % RO: 99.8%
MAD 20 mg QD capsule nonfasting, Day 1, 24 h postdose
  α4β7 % RO: 37.8%
MAD 20 mg QD capsule nonfasting, Day 14, 24 h postdose
  α4β7 % RO: 69.3%
MAD 20 mg QD capsule nonfasting, Day 14, predose
  α4β7 % RO: 70.8%
MAD 20 mg, Day 1 to Day 14
  change of α4β7 % RO post multiple once daily doses: accumulation
MAD 80 mg QD capsule nonfasting, Day 1, 3 h postdose
  α4β7 % RO: 99.9%
MAD 80 mg QD capsule nonfasting, Day 1, 24 h postdose
  α4β7 % RO: 98.1%
MAD 80 mg QD capsule nonfasting, Day 14, 24 h postdose
  α4β7 % RO: 99.4%
MAD 80 mg QD capsule nonfasting, Day 14, predose
  α4β7 % RO: 99.3%
MAD 80 mg nonfasting
  target engagement of α4β7 at 24 h on Day 1: achieved full target engagement
MAD 200 mg QD capsule nonfasting, Day 1, 24 h postdose
  α4β7 % RO: 99.8%
MAD 200 mg QD capsule nonfasting, Day 14, 24 h postdose
  α4β7 % RO: 99.8%
MAD 200 mg QD capsule nonfasting, Day 14, predose
  α4β7 % RO: 99.9%
MAD 200 mg QD tablet fasting, Day 1, 3 h postdose
  α4β7 % RO: 99.9%
MAD 200 mg QD tablet fasting, Day 1, 24 h postdose
  α4β7 % RO: 99.8%
MAD 200 mg QD tablet fasting, Day 14, 24 h postdose
  α4β7 % RO: 99.9%
MAD 200 mg QD tablet fasting, Day 14, predose
  α4β7 % RO: 100%
MAD 500 mg QD capsule nonfasting, Day 1, 3 h postdose
  α4β7 % RO: 99.9%
MAD 500 mg QD capsule nonfasting, Day 1, 24 h postdose
  α4β7 % RO: 99.9%
MAD 500 mg QD capsule nonfasting, Day 14, 24 h postdose
  α4β7 % RO: 99.9%
MAD 500 mg QD capsule nonfasting, Day 14, predose
  α4β7 % RO: 99.9%
MAD all doses ≥80 mg, in 100% of participants
  α4β7 % RO 24 h post the last once daily dose on Day 14: ≥ 95%
SAD 20 mg liquid-filled capsule fasting, Day 1, 3 h postdose
  α4β7 % RO: 100%
SAD 20 mg liquid-filled capsule fasting, Day 1, 24 h postdose
  α4β7 % RO: 35.9%
SAD 60 mg liquid-filled capsule fasting, Day 1, 3 h postdose
  α4β7 % RO: 100%
SAD 60 mg liquid-filled capsule fasting, Day 1, 24 h postdose
  α4β7 % RO: 63.4%
SAD 200 mg liquid-filled capsule fasting, Day 1, 3 h postdose
  α4β7 % RO: 99.9%
SAD 200 mg liquid-filled capsule fasting, Day 1, 24 h postdose
  α4β7 % RO: 99.7%
SAD 500 mg liquid-filled capsule fasting, Day 1, 3 h postdose
  α4β7 % RO: 99.9%
SAD 500 mg liquid-filled capsule fasting, Day 1, 24 h postdose
  α4β7 % RO: 99.8%
SAD 1000 mg liquid-filled capsule fasting, Day 1, 3 h postdose
  α4β7 % RO: 99.6%
SAD 1000 mg liquid-filled capsule fasting, Day 1, 24 h postdose
  α4β7 % RO: 99.8%
SAD fasting, 3 h postdose, all doses tested
  α4β7 % RO (full target engagement): ≥ 95%
SAD fasting, doses ≥200 mg
  subjects with full target engagement (% RO≥95) sustained 24 h postdose: 100%
